Laboratory results taken from US10273226B2, “Pyrazolyl-heteroarylamides as pesticides” (Bayer Animal Health GmbH, priority 2014, dated 2019).

What was measured:
Format in all cases: in vivo
[1] = system: Musca domestica; assay: Musca domestica test; conditions: application rate 100 ppm; adult houseflies; after 2 days
Protocol: (§1) Solvent: dimethyl sulphoxide
(§2) To produce an appropriate active ingredient formulation, 10 mg of active ingredient are mixed with 0.5 ml of dimethyl sulphoxide, and the concentrate is diluted with water to the desired concentration.
Vessels containing a sponge treated with sugar solution and the active ingredient formulation of the desired concentration are populated with 10 adult houseflies (Musca domestica).
After 2 days, the kill in % is determined. 100% means that all of the flies have been killed; 0% means that none of the flies have been killed.

[2] = system: Boophilus microplus; assay: Boophilus microplus injection test; conditions: application rate 20 μg/animal; injection into abdomen; assessed after 7 days
Protocol: Boophilus microplus—Injection Test
as §1
To produce an appropriate active ingredient formulation, 10 mg of active ingredient are mixed with 0.5 ml of solvent and the concentrate is diluted with solvent to the desired concentration.
1 μl of the active ingredient solution is injected into the abdomen of 5 engorged adult female cattle ticks (Boophilus microplus). The animals are transferred into dishes and kept in a climate-controlled room.
Efficacy is assessed after 7 days by laying of fertile eggs. Eggs which are not visibly fertile are stored in a climate-controlled cabinet until the larvae hatch after about 42 days. An efficacy of 100% means that none of the ticks has laid any fertile eggs; 0% means that all the eggs are fertile.

[3] = system: Lucilia cuprina; assay: Lucilia cuprina test; conditions: application rate 100 ppm; L1 larvae; after 2 days
Protocol: as §1, §2
About 20 L1 larvae of the Australian sheep blowfly (Lucilia cuprina) are transferred into a test vessel containing minced horsemeat and the active ingredient preparation of the desired concentration.
After 2 days, the kill in % is determined. 100% means that all the larvae have been killed and 0% means that none of the larvae have been killed.

[4] = system: Rhipicephalus sanguineus; assay: Rhipicephalus sanguineus in vitro contact test with adult brown dog ticks; conditions: application rate 5 μg/cm^2 (500 g/ha); after 48 h; ticks dead or moribund
Protocol: Rhipicephalus sanguineus—In Vitro Contact Tests with Adult Brown Dog Ticks
(§3) For the coating of the test tubes, 9 mg of active ingredient are first dissolved in 1 ml of acetone p.a. and then diluted to the desired concentration with acetone p.a. 250 μl of the solution are distributed homogeneously on the inner walls and base of a 25 ml test tube by turning and rocking on an orbital shaker (rocking rotation at 30 rpm for 2 h). With 900 ppm active ingredient solution and internal surface 44.7 cm^2, given homogeneous distribution, an area-based dose of 5 μg/cm^2 is achieved.
After the solvent has evaporated off, the tubes are populated with 5-10 adult dog ticks (Rhipicephalus sanguineus), sealed with a perforated plastic lid and incubated in a horizontal position in the dark at room temperature and ambient humidity. After 48 h, efficacy is determined. To this end, the ticks are knocked to the floor of the tube and incubated on a hotplate at 45-50° C. for not more than 5 min. Ticks which remain motionless on the floor or move in such an uncoordinated manner that they are unable to deliberately avoid the heat by climbing upwards are considered to be dead or moribund.
An efficacy of 100% means that all the ticks were dead or moribund. 0% efficacy means that none of the ticks had been harmed.

[5] = system: Ctenocephalides felis; assay: Ctenocephalides felis oral test; conditions: application rate 100 ppm in citrated cattle blood; after 2 days
Protocol: Ctenocephalides felis—Oral Test
as §1
For the purpose of producing an appropriate active ingredient formulation, 10 mg of active ingredient are mixed with 0.5 ml of dimethyl sulphoxide. Dilution with citrated cattle blood gives the desired concentration.
About 20 unfed adult cat fleas (Ctenocephalides felis) are placed into a chamber which is closed at the top and bottom with gauze. A metal cylinder whose bottom end is closed with parafilm is placed onto the chamber. The cylinder contains the blood/active ingredient preparation, which can be imbibed by the fleas through the parafilm membrane.
After 2 days, the kill in % is determined. 100% means that all of the fleas have been killed; 0% means that none of the fleas have been killed.

[6] = system: Spodoptera frugiperda; assay: Spodoptera frugiperda spray test; conditions: application rate 100 g/ha; caterpillars; after 7 days
Protocol: Spodoptera frugiperda—Spray Test
(§4) To produce an appropriate active ingredient formulation, 1 part by weight of active ingredient is dissolved using the specified parts by weight of solvent and made up with water containing an emulsifier concentration of 1000 ppm until the desired concentration is attained. To produce further test concentrations, the preparation is diluted with emulsifier-containing water.
Leaf discs of maize (Zea mays) are sprayed with an active ingredient formulation of the desired concentration and, after drying, populated with caterpillars of the armyworm (Spodoptera frugiperda).
After 7 days, efficacy in % is determined. 100% means that all the caterpillars have been killed; 0% means that no caterpillars have been killed.

[7] = system: Phaedon cochleariae; assay: Phaedon cochleariae spray test; conditions: application rate 100 g/ha; larvae; after 7 days
Protocol: Phaedon cochleariae—Spray Test
as §4
Discs of Chinese cabbage leaves (Brassica pekinensis) are sprayed with an active ingredient formulation of the desired concentration and, after drying, populated with larvae of the mustard beetle (Phaedon cochleariae).
After 7 days, efficacy in % is determined. 100% means that all the beetle larvae have been killed; 0% means that no beetle larvae have been killed.

[8] = system: Ctenocephalides felis; assay: Ctenocephalides felis in vitro contact test with adult cat fleas; conditions: application rate 5 μg/cm^2 (500 g/ha); after 48 h; fleas dead or moribund
Protocol: Ctenocephalides felis—In Vitro Contact Tests with Adult Cat Fleas
as §3
After the solvent has evaporated off, the tubes are populated with 5-10 adult cat fleas (Ctenocephalides felis), sealed with a perforated plastic lid and incubated in a horizontal position at room temperature and ambient humidity. After 48 h, efficacy is determined. To this end, the test tubes are stood upright and the fleas are knocked to the base of the tube. Fleas which remain motionless at the base or move in an uncoordinated manner are considered to be dead or moribund.
100% efficacy means that all the fleas were dead or moribund. 0% efficacy means that no fleas were harmed.

[9] = system: Tetranychus urticae; assay: Tetranychus urticae spray test, OP-resistant; conditions: application rate 100 g/ha; after 6 days
Protocol: Tetranychus urticae—Spray Test, OP-Resistant
as §4
Discs of bean leaves (Phaseolus vulgaris) infested by all stages of the greenhouse red spider mite (Tetranychus urticae) are sprayed with an active ingredient formulation of the desired concentration.
After 6 days, efficacy in % is determined. 100% means that all the spider mites have been killed; 0% means that none of the spider mites have been killed.

SMILES | efficacy (kill in %) [1] | efficacy (laying of fertile eggs) [2] | efficacy (kill in %) [3] | efficacy [4] | efficacy (kill in %) [5] | efficacy [6] | efficacy [7] | efficacy [8] | efficacy [9]
Cn1nc(C(F)(F)C(F)(F)F)c(C(F)(F)F)c1-n1cc(-c2ccc(F)c(NC(=O)C(C)(C)c3cccc(Cl)c3)c2)cn1 [Example 1-119] | 80% | 100% | 100% |  |  |  |  |  | 
Cn1nc(C(F)(F)C(F)(F)F)c(C(F)(F)F)c1-n1cc(-c2ccc(F)c(NC(=O)C3CCCC3)c2)cn1 [Example 1-077] | 100% | 100% | 100% | 100% | 100% |  |  |  | 
Cn1nc(C(F)(F)C(F)(F)F)c(C(F)(F)F)c1-n1cc(-c2cccc(NC(=O)C3CC3)c2)cn1 [Example 1-002] | 100% | 100% | 100% | 100% | 100% | 83% | 100% |  | 
C[C@@H](F)C(=O)Nc1cc(-c2cnn(-c3c(C(F)(F)F)c(C(F)(F)C(F)(F)F)nn3C)c2)ccc1F [Example 1-066] |  | 100% | 80% | 100% | 100% |  |  | 100% | 
Cn1nc(C(F)(F)C(F)(F)F)c(C(F)(F)F)c1-n1cc(-c2ccc(F)c(NC(=O)C3(Cl)CC3)c2)cn1 [Example 1-032] | 80% | 100% | 100% | 100% | 100% |  |  |  | 
Cc1ccc(C(=O)Nc2cc(-c3cnn(-c4c(C(F)(F)F)c(C(F)(F)C(F)(F)F)nn4C)c3)ccc2F)s1 [Example 1-069] |  | 100% | 100% | 100% | 100% | 100% | 100% | 100% | 90%
Cn1nc(C(F)(F)C(F)(F)F)c(C(F)(F)F)c1-n1cc(-c2ccc(F)c(NC(=O)c3cccnc3)c2)cn1 [Example 1-085] |  | 100% | 100% | 100% | 100% | 83% | 100% | 100% | 100%
Cc1cc(C(=O)Nc2cc(-c3cnn(-c4c(C(F)(F)F)c(C(F)(F)C(F)(F)F)nn4C)c3)ccc2F)ccc1F [Example 1-091] |  | 100% | 100% | 100% | 100% | 100% | 100% | 100% | 100%
Cn1nc(C(F)(F)C(F)(F)F)c(C(F)(F)F)c1-n1cc(-c2ccc(F)c(NC(=O)c3cccc(C#N)c3)c2)cn1 [Example 1-075] | 100% | 100% | 100% | 100% | 100% |  |  |  | 
Cc1ccc2c(Cl)c(C(=O)Nc3cc(-c4cnn(-c5c(C(F)(F)F)c(C(F)(F)C(F)(F)F)nn5C)c4)ccc3F)sc2c1 [Example 1-083] |  | 80% |  |  |  |  |  | 80% | 
COc1cc(C(=O)Nc2cc(-c3cnn(-c4c(C(F)(F)F)c(C(F)(F)C(F)(F)F)nn4C)c3)ccc2F)ccc1C [Example 1-097] |  | 100% | 100% | 100% | 100% | 100% | 100% | 100% | 100%
Cn1nc(C(F)(F)C(F)(F)F)c(C(F)(F)F)c1-n1cc(-c2ccc(Cl)c(NC(=O)c3ccccc3)c2)cn1 [Example 1-023] |  | 100% | 100% | 100% | 100% | 100% | 100% | 100% | 100%
Cn1nc(C(F)(F)C(F)(F)F)c(C(F)(F)F)c1-n1cc(-c2ccc(F)c(NC(=O)c3ccc(F)cc3)c2F)cn1 [Example 1-039] |  |  |  |  |  | 100% | 100% | 80% | 100%
Cn1nc(C(F)(F)C(F)(F)F)c(C(F)(F)F)c1-n1cc(-c2ccc(F)c(NC(=O)Cc3ccc(F)cc3Cl)c2)cn1 [Example 1-126] | 90% | 100% | 100% |  | 100% |  | 100% |  | 
COc1ccc(C(=O)Nc2cc(-c3cnn(-c4c(C(F)(F)F)c(C(F)(F)C(F)(F)F)nn4C)c3)ccc2F)cc1F [Example 1-095] |  | 100% | 100% | 100% | 100% | 100% | 100% | 100% | 100%
